Measured values: PubChem BioAssay (NCI)
Where “and” joins values, the source holds several entries; their conditions need not be identical. Identical values can stand only once.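 Results reflect a 48-hour exposure of cells in 96-well plates to compound at five concentrations. At the GI50, growth is halved. TGI: total growth inhibition.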

What was measured:
Test in all cases: DTP human tumour cell line panel, 48 h
MALME-3M melanoma = system: MALME-3M melanoma
SF-268 CNS = system: SF-268 CNS
MDA-N = system: MDA-N
IGROV1 ovarian = system: IGROV1 ovarian
DU-145 prostate = system: DU-145 prostate
HT29 colon = system: HT29 colon
OVCAR-4 ovarian = system: OVCAR-4 ovarian
KM12 colon = system: KM12 colon
MDA-MB-231 breast = system: MDA-MB-231 breast
HOP-62 NSCLC = system: HOP-62 NSCLC
SNB-75 CNS = system: SNB-75 CNS
COLO 205 colon = system: COLO 205 colon
U251 CNS = system: U251 CNS
SK-MEL-28 melanoma = system: SK-MEL-28 melanoma
SR leukemia = system: SR leukemia
RPMI-8226 leukemia = system: RPMI-8226 leukemia
DMS 114 small cell lung = system: DMS 114 small cell lung
K-562 leukemia = system: K-562 leukemia
ACHN renal = system: ACHN renal
SK-MEL-5 melanoma = system: SK-MEL-5 melanoma
A498 renal = system: A498 renal
NCI-H522 lung = system: NCI-H522 lung
MOLT-4 leukemia = system: MOLT-4 leukemia
NCI-H460 lung = system: NCI-H460 lung
M14 melanoma = system: M14 melanoma
HCT-15 colon = system: HCT-15 colon
DMS 273 small cell lung = system: DMS 273 small cell lung
SW-620 colon = system: SW-620 colon
MCF7 breast = system: MCF7 breast
LXFL 529 NSCLC = system: LXFL 529 NSCLC
SF-539 CNS = system: SF-539 CNS
HOP-18 NSCLC = system: HOP-18 NSCLC
UACC-257 melanoma = system: UACC-257 melanoma
TK-10 renal = system: TK-10 renal
UACC-62 melanoma = system: UACC-62 melanoma
SK-MEL-2 melanoma = system: SK-MEL-2 melanoma
NCI-H23 lung = system: NCI-H23 lung
RXF 393 renal = system: RXF 393 renal
CCRF-CEM leukemia = system: CCRF-CEM leukemia
HCC-2998 colon = system: HCC-2998 colon
DLD-1 colon = system: DLD-1 colon
MDA-MB-435 = system: MDA-MB-435
XF 498 CNS = system: XF 498 CNS
SNB-19 CNS = system: SNB-19 CNS
HOP-92 NSCLC = system: HOP-92 NSCLC
SNB-78 CNS = system: SNB-78 CNS
NCI/ADR-RES ovarian = system: NCI/ADR-RES ovarian
NCI-H226 lung = system: NCI-H226 lung
OVCAR-3 ovarian = system: OVCAR-3 ovarian
A549 NSCLC = system: A549 NSCLC
LOX IMVI melanoma = system: LOX IMVI melanoma
UO-31 renal = system: UO-31 renal
HL-60(TB) leukemia = system: HL-60(TB) leukemia
M19-MEL melanoma = system: M19-MEL melanoma
SK-OV-3 ovarian = system: SK-OV-3 ovarian
OVCAR-5 ovarian = system: OVCAR-5 ovarian
SF-295 CNS = system: SF-295 CNS
T-47D breast = system: T-47D breast
SN12C renal = system: SN12C renal
HCT-116 colon = system: HCT-116 colon
786-0 renal = system: 786-0 renal
OVCAR-8 ovarian = system: OVCAR-8 ovarian
CAKI-1 renal = system: CAKI-1 renal
KM20L2 colon = system: KM20L2 colon
EKVX NSCLC = system: EKVX NSCLC

For CC(C)c1ccc(O)c(=O)cc1, the GI50 (MALME-3M melanoma) was 19.9 µM, the TGI (MALME-3M melanoma) was > 72 µM and 66.6 µM and the GI50 (SF-268 CNS) was 7.43 µM. The TGI (SF-268 CNS) was > 62.1 µM, the GI50 (MDA-N) was 22.7 µM and the GI50 (IGROV1 ovarian) was 7.48 µM. For the same compound, the TGI (IGROV1 ovarian) was > 100 µM, the GI50 (DU-145 prostate) was 9.43 µM and the GI50 (HT29 colon) was 2810 nM. The TGI (HT29 colon) was > 100 µM, the GI50 (OVCAR-4 ovarian) was 4.56 µM and the TGI (OVCAR-4 ovarian) was > 100 µM. For the same compound, the GI50 (KM12 colon) was 5.28 µM, the TGI (KM12 colon) was > 100 µM and the GI50 (MDA-MB-231 breast) was 13.4 µM. The GI50 (HOP-62 NSCLC) was 3.75 µM, the TGI (HOP-62 NSCLC) was > 100 µM and the GI50 (SNB-75 CNS) was 75.4 µM. For the same compound, the TGI (SNB-75 CNS) was > 100 µM, the GI50 (COLO 205 colon) was 3.83 µM and the TGI (COLO 205 colon) was 30.1 µM. The GI50 (U251 CNS) was 6.53 µM, the TGI (U251 CNS) was > 80.9 µM and the TGI (SK-MEL-28 melanoma) was > 100 µM. For the same compound, the GI50 (SR leukemia) was 4.18 µM, the TGI (SR leukemia) was > 100 µM and the GI50 (RPMI-8226 leukemia) was 6.35 µM. The TGI (RPMI-8226 leukemia) was > 80.5 µM, the TGI (DMS 114 small cell lung) was 11.5 µM and the GI50 (K-562 leukemia) was 3.63 µM. For the same compound, the TGI (K-562 leukemia) was > 53.1 µM and 14.6 µM, the GI50 (ACHN renal) was 4.46 µM and the TGI (ACHN renal) was > 68.5 µM. The GI50 (SK-MEL-5 melanoma) was 11.1 µM, the TGI (SK-MEL-5 melanoma) was 35.2 µM and 41.4 µM and the TGI (A498 renal) was > 100 µM. The GI50 (NCI-H522 lung) was 3.4 µM, the TGI (NCI-H522 lung) was 24.5 µM and 24.4 µM and the GI50 (MOLT-4 leukemia) was 2160 nM. For the same compound, the TGI (MOLT-4 leukemia) was > 44.8 µM and 6.22 µM, the GI50 (NCI-H460 lung) was 2660 nM and the TGI (NCI-H460 lung) was 81.4 µM. It also gave a GI50 (M14 melanoma) of 16.3 µM, a TGI (M14 melanoma) of 40.6 µM and a GI50 (HCT-15 colon) of 4.95 µM. The TGI (HCT-15 colon) was > 100 µM, the TGI (DMS 273 small cell lung) was > 46.3 µM and the GI50 (SW-620 colon) was 6.15 µM. The TGI (SW-620 colon) was > 100 µM, the GI50 (MCF7 breast) was 5.08 µM and the TGI (LXFL 529 NSCLC) was > 100 µM. The GI50 (SF-539 CNS) was 7.69 µM, the TGI (SF-539 CNS) was 17 µM and the TGI (HOP-18 NSCLC) was > 56.1 µM. It also gave a GI50 (UACC-257 melanoma) of 15.9 µM, a TGI (UACC-257 melanoma) of 31 µM and a GI50 (TK-10 renal) of 39.7 µM. For the same compound, the TGI (TK-10 renal) was > 100 µM, the TGI (UACC-62 melanoma) was 21.8 µM and the GI50 (SK-MEL-2 melanoma) was 34.5 µM. The TGI (SK-MEL-2 melanoma) was 39 µM, the GI50 (NCI-H23 lung) was 17.2 µM and the TGI (NCI-H23 lung) was > 74 µM. For the same compound, the TGI (RXF 393 renal) was > 86.2 µM, the GI50 (CCRF-CEM leukemia) was 1670 nM and the TGI (CCRF-CEM leukemia) was > 41 µM and 4.89 µM. For the same compound, the TGI (HCC-2998 colon) was > 100 µM, the TGI (DLD-1 colon) was > 100 µM and the GI50 (MDA-MB-435) was 19.6 µM. For the same compound, the TGI (XF 498 CNS) was > 100 µM, the GI50 (SNB-19 CNS) was 15.3 µM and the TGI (SNB-19 CNS) was > 71.4 µM. The GI50 (HOP-92 NSCLC) was 3.12 µM, the TGI (HOP-92 NSCLC) was > 100 µM and the TGI (SNB-78 CNS) was > 91.1 µM. It also gave a GI50 (NCI/ADR-RES ovarian) of 3.64 µM, a TGI (NCI/ADR-RES ovarian) of 59.3 µM and a GI50 (NCI-H226 lung) of 66.7 µM. For the same compound, the TGI (NCI-H226 lung) was 36.5 µM, the GI50 (OVCAR-3 ovarian) was 2030 nM and the TGI (OVCAR-3 ovarian) was > 100 µM and 18.3 µM. For the same compound, the GI50 (A549 NSCLC) was 4.69 µM, the TGI (A549 NSCLC) was > 71.4 µM and the GI50 (LOX IMVI melanoma) was 3.54 µM. For the same compound, the TGI (LOX IMVI melanoma) was 40.7 µM and 72.8 µM, the GI50 (UO-31 renal) was 6.31 µM and the TGI (UO-31 renal) was 35.7 µM and 71.7 µM. The GI50 (HL-60(TB) leukemia) was 2510 nM, the TGI (HL-60(TB) leukemia) was > 24.5 µM and the TGI (M19-MEL melanoma) was > 70.9 µM. For the same compound, the TGI (SK-OV-3 ovarian) was > 100 µM, the GI50 (OVCAR-5 ovarian) was 6.84 µM and the TGI (OVCAR-5 ovarian) was 64.8 µM and > 100 µM. For the same compound, the GI50 (SF-295 CNS) was 7.57 µM, the TGI (SF-295 CNS) was > 100 µM and the GI50 (T-47D breast) was 21 µM. For the same compound, the GI50 (SN12C renal) was 5.85 µM, the TGI (SN12C renal) was > 100 µM and the GI50 (HCT-116 colon) was 3.92 µM. The TGI (HCT-116 colon) was 13.4 µM and 37.2 µM, the GI50 (786-0 renal) was 14.7 µM and the TGI (786-0 renal) was > 100 µM. The GI50 (OVCAR-8 ovarian) was 3.54 µM, the TGI (OVCAR-8 ovarian) was > 100 µM and the GI50 (CAKI-1 renal) was 8.54 µM. The TGI (CAKI-1 renal) was > 70.1 µM, the TGI (KM20L2 colon) was > 100 µM and the TGI (EKVX NSCLC) was > 100 µM.
